Assay results reported in patent US11571458B2, “Bacteriocins to improve vaginal colonization of hydrogen peroxide producing lactobacillus for female reproductive health” (Osel, Inc., priority 2018, dated 2023).

B1: KNWSVAKCGGTIGTNIAIGAWRGARAGSFFGQPVSVGTGALIGASAGAIGGSVQCVGWLAGGGR (protein, listed as Lactobacillus paragasseri)
chain: KNWSVAKCGGTIGTNIAIGAWRGARAGSFFGQPVSVGTGALIGASAGAIGGSVQCVGWLAGGGR
notes: α peptide of two-component bacteriocin gassericin K7A from L. paragasseri K7

How the values were obtained:
[1] = tested on: L. iners HM-702; experiment: combined use of K7 bacteriocins and metronidazole, OD 600 nm; assay type: cell-based, Lactobacillus iners; settings: 48 hours; K7 bacteriocin 80 BU/mL, metronidazole 42 μg/mL
Procedure: (§1) The effectiveness of the combined use of the K7 bacteriocins and metronidazole was tested against L. iners and G. vaginalis in vitro. Cultures of L. iners HM-702 and G. vaginalis HM-133, L. iners+G. vaginalis co-cultures, and L. crispatus SJ-3C were obtained as described previously in Example 1. Overnight cultures of L. iners, G. vaginalis, and L. crispatus were diluted in fresh growth media to concentrations of approximately 10^5 CFU/mL to be tested against K7 bacteriocin (from Example 1), metronidazole (Sigma-Aldrich, USA), and K7 bacteriocin+metronidazole (combined). To each culture of L. iners, G. vaginalis, the L. iners+G. vaginalis co-culture, and L. crispatus was added semi-purified K7 bacteriocin (80 BU/mL, quantified using L. iners as indicator), metronidazole (42 μg/mL), or the K7 bacteriocin+metronidazole combination, and incubated anaerobically at 37° C. for 48 hours. As controls, L. iners, G. vaginalis, the L. iners+G. vaginalis, and L. crispatus were incubated alone with conditioned media for 48 hours as well.

[2] = tested on: G. vaginalis HM-133; experiment: as above; assay type: cell-based, Gardnerella vaginalis; settings: 48 hours; K7 bacteriocin 80 BU/mL, metronidazole 42 μg/mL
Procedure: as §1

[3] = tested on: L. crispatus SJ-3C; experiment: as above; assay type: cell-based, Lactobacillus crispatus; settings: 48 hours; K7 bacteriocin 80 BU/mL, metronidazole 42 μg/mL
Procedure: as §1

[4] = tested on: Lactobacillus sakei subsp. sakei ATCC 15521; experiment: critical dilution assay (bacteriocin activity / MIC); assay type: cell-based; settings: ratio of peptides about 1:1 (w/w)
[5] = tested on: Lactobacillus iners; experiment: as above; assay type: cell-based; settings: for L. iners HM-702 MIC: ratio of peptides about 1:1 (w/w); for anti-L. iners activity of purified chromatography fraction: reverse phase fractions identified by MALDI-TOF; for L. iners HM-702 MIC / MIC against L. iners: L. iners HM-702; for MIC against L. iners: molar value given in brackets

Molecule	sensitivity of L. iners (OD 600 nm) [1]	sensitivity of G. vaginalis (OD 600 nm) [2]	inhibition of L. crispatus SJ-3C (OD 600 nm) [3]	L. sakei subsp. sakei ATCC 15521 MIC [4] [µg/mL]	L. iners HM-702 MIC ([5]; critical dilution assay) [µg/mL]	anti-L. iners activity of purified chromatography fraction [5]	MIC against L. iners [5] [nM]	activity of peptide expressed as MBP fusion in E. coli ([5]; critical dilution assay, data not shown)
Cc1ncc([N+](=O)[O-])n1CCO [metronidazole]	not sensitive	sensitive	not significantly inhibited	–	–	–	–	–
NKWGNAVIGAATGATRGVSWCRGFGPWGMTACGLGGAAIGGYLGYKSN (listed as Lactobacillus paragasseri) [GasK7B β, β peptide of two-component bacteriocin gassericin K7B from L. paragasseri K7]	–	–	–	0.025	>0.1	minor peak of activity	–	–
NNVNWGSVAGSCGKGAVMEIYFGNPILGCANGAATSLVLQTASGIYKNYQKKR (listed as Lactobacillus paragasseri) [GasK7A β, β peptide of two-component bacteriocin gassericin K7A]	–	–	–	>4	>4	–	–	–
RNNWAANIGGAGGATVAGWALGNAVCGPACGFVGAHYVPIAWAGVTAATGGFGKIRK (listed as Lactobacillus paragasseri) [GasK7B α, α peptide of two-component bacteriocin gassericin K7B from L. paragasseri K7]	–	–	–	0.0016	0.025	greatest anti-L. iners activity	5	comparable to the peptide isolated from K7
B1	–	–	–	0.0094	0.075	–	12	–
